# What was measured:
# [1] = biological target: T1, SF9 affinity purified rat FPT (Rattus norvegicus, UniProt Q02293+Q04631); test: PFT (FPT) inhibitory activity assay, radiolabeled farnesyl pyrophosphate and biotinyl peptide, streptavidin beads; assay type: biochemical; conditions: HEPES buffer pH 7.4, 30° C., 30 minutes; read-out: FTase IC50
# T1 construct: made in house; host or cells: Sf9 insect cells
# Procedure, shortened: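 Rat FPT expressed in SF9 cells was incubated 30 minutes at 30° C. with compound (in 10% DMSO), radiolabeled farnesyl pyrophosphate and biotinylated peptide. Buffer: HEPES pH 7.4, ZnCl2 20 μM, MgCl2 and DTT 5 mM each, 0.1% PEG 8000, 5 mM potassium phosphate (also run without phosphate). Product captured on streptavidin beads in magnesium acetate/H3PO4 stop buffer.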
# [2] = tested on: EJ-1 human bladder carcinoma; conditions: 100 mg/kg, xenograft in nude mice; cited from earlier work
# [3] = tested on: HT1080 human fibrosarcoma; conditions: 100 mg/kg, xenograft in nude mice; cited from earlier work
# [4] = tested on: human colon carcinoma xenografts; conditions: 100 mg/kg, xenograft in nude mice; cited from earlier work
# [5] = tested on: human lung carcinoma with K-ras mutation and p53 deletion; conditions: nude mice; cited from earlier work
# [6] = tested on: mammary and salivary carcinomas; conditions: daily administration, ras transgenic mice; cited from earlier work
smiles,measurement,setting,value
"Nc1nccn1CC(Oc1ccc2c(c1CCc1ccccc1)CCCC2=O)c1ccccc1 (stereo not shown) [Compound 63r, 6-[2-(2-Amino-imidazol-1-yl)-1-phenyl-ethoxy]-5-phenethyl-3,4-dihydro-2H-naphthalen-1-one]",melting point,,185 to 188 °C
same,IC50,[1],35 nM
"CC[C@H](C)CNC(=O)c1cccc(SCc2c(O[C@H](Cn3ccnc3)c3ccccc3)ccc3c2CCCC3=O)c1 [Compound 252, 3-{[(2-{[(1S)-2-(1H-Imidazol-1-yl)-1-phenylethyl]oxy}-5-oxo-5,6,7,8-tetrahydro-1-naphthalenyl)methyl]sulfanyl}-N-[(2S)-2-methylbutyl]benzamide]",IC50,[1],0.2 nM
"CC(O)CNC(=O)c1ccc(S(=O)(=O)Cc2c(O[C@H](Cn3ccnc3)c3ccccc3)ccc3c2CCCC3=O)cc1 (stereo partly drawn) [Compound 253, N-(2-Hydroxypropyl)-4-{[(2-{[(1S)-2-(1H-imidazol-1-yl)-1-phenylethyl]oxy}-5-oxo-5,6,7,8-tetrahydro-1-naphthalenyl)methyl]sulfonyl}benzamide]",IC50,[1],0.7 nM
"CC(O)CNC(=O)c1cccc(S(=O)(=O)Cc2c(O[C@H](Cn3ccnc3)c3ccccc3)ccc3c2CCCC3=O)c1 (stereo partly drawn) [Compound 254, N-(2-Hydroxypropyl)-3-{[(2-{[(1S)-2-(1H-imidazol-1-yl)-1-phenylethyl]oxy}-5-oxo-5,6,7,8-tetrahydro-1-naphthalenyl)methyl]sulfonyl}benzamide]",IC50,[1],1 nM
CC(O)CNC(=O)c1ccccc1S(=O)(=O)Cc1c(O[C@H](Cn2ccnc2)c2ccccc2)ccc2c1CCCC2=O (stereo partly shown) [Compound 255],IC50,[1],0.2 nM
"CC(O)CNC(=O)c1ccc(SCc2c(O[C@H](Cn3ccnc3)c3ccccc3)ccc3c2CCCC3=O)cc1 (stereo partly drawn) [Compound 256, N-(2-Hydroxypropyl)-4-{[(2-{[(1S)-2-(1H-imidazol-1-yl)-1-phenylethyl]oxy}-5-oxo-5,6,7,8-tetrahydro-1-naphthalenyl)methyl]sulfanyl}benzamide]",IC50,[1],0.2 nM
"CC(O)CNC(=O)c1ccccc1SCc1c(O[C@H](Cn2ccnc2)c2ccccc2)ccc2c1CCCC2=O (stereo partly drawn) [Compound 257, N-(2-Hydroxypropyl)-2-{[(2-{[(1S)-2-(1H-imidazol-1-yl)-1-phenylethyl]oxy}-5-oxo-5,6,7,8-tetrahydro-1-naphthalenyl)methyl]sulfanyl}benzamide]",IC50,[1],0.2 nM
"CC(O)CNC(=O)c1cccc(SCc2c(O[C@H](Cn3ccnc3)c3ccccc3)ccc3c2CCCC3=O)c1 (stereo partly drawn) [Compound 258, N-(2-Hydroxypropyl)-3-{[(2-{[(1S)-2-(1H-imidazol-1-yl)-1-phenylethyl]oxy}-5-oxo-5,6,7,8-tetrahydro-1-naphthalenyl)methyl]sulfanyl}benzamide]",IC50,[1],0.2 nM
"COCCNC(=O)c1cccc(SCc2c(O[C@H](Cn3ccnc3)c3ccccc3)ccc3c2CCCC3=O)c1 [Compound 259, 3-{[(2-{[(1S)-2-(1H-Imidazol-1-yl)-1-phenylethyl]oxy}-5-oxo-5,6,7,8-tetrahydro-1-naphthalenyl)methyl]sulfanyl}-N-(2-methoxyethyl)benzamide]",IC50,[1],0.2 nM
"COCCNC(=O)c1ccccc1SCc1c(O[C@H](Cn2ccnc2)c2ccccc2)ccc2c1CCCC2=O [Compound 260, 2-{[(2-{[(1S)-2-(1H-Imidazol-1-yl)-1-phenylethyl]oxy}-5-oxo-5,6,7,8-tetrahydro-1-naphthalenyl)methyl]sulfanyl}-N-(2-methoxyethyl)benzamide]",IC50,[1],0.2 nM
COCCNC(=O)c1ccc(SCc2c(O[C@H](Cn3ccnc3)c3ccccc3)ccc3c2CCCC3=O)cc1 [Compound 261],IC50,[1],0.2 nM
"COCCNC(=O)c1cccc(S(=O)(=O)Cc2c(O[C@H](Cn3ccnc3)c3ccccc3)ccc3c2CCCC3=O)c1 [Compound 263, 3-{[(2-{[(1S)-2-(1H-Inimidazol-1-yl)-1-phenylethyl]oxy}-5-oxo-5,6,7,8-tetrahydro-1-naphthalenyl)methyl]sulfonyl}-N-(2-methoxyethyl)benzamide]",IC50,[1],0.2 nM
"COCCNC(=O)c1ccccc1S(=O)(=O)Cc1c(O[C@H](Cn2ccnc2)c2ccccc2)ccc2c1CCCC2=O [Compound 264, 2-{[(2-{[(1S)-2-(1H-Imidazol-1-yl)-1-phenylethyl]oxy}-5-oxo-5,6,7,8-tetrahydro-1-naphthalenyl)-methyl]sulfonyl}-N-(2-methoxyethyl)benzamide]",IC50,[1],0.2 nM
COC(=O)[C@H](CCSC)NC(=O)[C@H](/C=C\[C@@H](/C=C/[C@@H](N)CS)C(C)C)Cc1ccccc1 [Compound B1086],inhibition of tumor growth,[2],inhibit tumor growth
same,inhibition of tumor growth,[3],inhibit tumor growth
same,inhibition of tumor growth,[4],inhibit tumor growth
CSCC[C@H](NC(=O)c1ccc(NC[C@@H](N)CS)cc1-c1ccccc1)C(=O)O [FTI276],block of tumor growth,[5],selectively block tumor growth
"CC[C@H](C)[C@@H](CO[C@@H](Cc1ccccc1)C(=O)N[C@@H](CCS(C)(=O)=O)C(=O)OC(C)C)NC[C@@H](N)CS [L-744,832]",tumor regression,[6],tumor regression
